Assay results published in patent publication US9408859B2, “Pharmaceutical compositions useful for preventing and treating cancer” (Mitotech SA, priority 2007, dated 2016).

Experiments:
Ehrlich's carcinoma = assay: Anti-tumoral effect on hypodermic Ehrlich's carcinoma; assay type: in vivo, mouse; conditions: 0.5 nM/kg ip
Method: The experiment was performed according to the methods described in Example 2.
Injection of the preparation started 48 hours after transplantation and proceeded during 5, 10, 15, and 30 days. For tumor treatment efficiency, estimations of tumor volumes were evaluated many times after end of short courses or once after end of the 30-day course. […] The results were then statistically calculated using confidence intervals of mean values of compared values, difference stated reliable if p<0.05.

[1] = Tolerance to the treatment and autopsy in mice with A-431 xenografts; assay type: in vivo
Method: Tolerance to the treatment was estimated according to the time of death which corresponded to the treatment with each preparation.
Mice were sacrificed by ether anesthesia overdose. An autopsy was performed, and tumors were then extracted and assayed histologically and immunohistochemically. Tumors were fixed in 10% formaldehyde and set into paraffin wax. Histological assays were carried out on tumor histological sections, stained with hematoxylin and eosin. The number of microvessels was examined by standard immunological method using antibodies to CD34 antigen. Presence of vessel mimicry was estimated by tumor section staining with Schiffs reagent.

HCT116 p53−/− = assay: Growth of human large intestine carcinoma xenografts, inactivated p53; assay type: in vivo, mouse
Source text: (§1) Two human large intestine carcinoma cell sub-lines that differ by p53 status—wild type cells (HCT116 p53+/+)) and cells with inactivated p53 (HCT116 p53−/−)) cell line cultivation see in Bunz et al. (1998) Science, 282:1497-1500; see model description in Sablina et al. (2003), J. Biol. Chem., 278:27362-27371. One million cells were hypodermically implanted into thymus-deprived mice. Mice in each group were divided into 4 sub-groups of 10 mice: one group received water to drink; one group received water with SkQ1 (0.01 nmol) per mouse per day (0.5 nM/kg/day); one group received water with SkQ1 (0.1 nmol) per mouse per day (5 nM/kg/day); one group received water with SkQ1 (1 nmol) per mouse per day (50 nM/kg/day).
(§2) The size of the tumors was evaluated every 3 days. After 4 weeks mice were sacrificed and the tumors removed and fixed for histological assay.

[2] = system: Mouse Ras-transformed fibroblast cells; assay: Effect on morphology and adherence of Ras-transformed cells; assay type: cell-based
Method: The experiment was carried out using cells, transformed with genetic construct, expressing oncogene RAS, and thus modeling conditions of cells underwent cancerous transformation. (see, model description in Levina, et al. (1996), Exp. Cell. Res., November 25; 229(1):159-165).
Mouse Ras-transformed fibroblast cells had strongly expressed changed morphology (FIG. 1), one close to morphology of metastasizing cancerous cells (decrease in surface square, cell elongation). […] Cells were poorly adherent and spread-eagled what led to monolayer structure disorder.
However incubation with SkQ1 led to significant changes in cells morphology (FIG. 1). […] Morphological changes correlated with actinic fibrils increase in content, focal contact reinforcement and cell better adherence to the surface.

HCT116 p53+/+ = assay: Growth of human large intestine carcinoma xenografts, wild type p53; assay type: in vivo, mouse; conditions: SkQ1 in drinking water, 0.5-50 nM/kg/day, 4 weeks
Source text: as §1, §2

[3] = system: human rhabdomyosarcoma cell line (RD); assay: RD cell morphology, attachment and multinuclear cells; assay type: cell-based
Method: In the following experiment, a human rhabdomyosarcoma cell line (RD) purchased from the ATCC (#CCL-136) was used. These cells were isolated from a […] 7 years ago and are widely accepted as a model for studies of rhabdomyosarcoma in vitro and in vivo.
The cells were grown in Dulbecco's modified Eagle's medium (DMEM, Gibco®, Invitrogen, Carlsbad, Calif.) supplemented with 10% FBS. The cells were treated with 20 nM SkQ (SkQ1, SkQR1, SkQB1, or SkQBP1), or with a non-targeted antioxidant (1 mM NAC, or 100 μM Trolox) 24 to 72 hours before evaluation. In some experiments 1 μM of the protonophorous uncoupler FCCP was added 1 hour before the addition of SkQ1 to depolarize the mitochondrial membrane, and thus to prevent the electrophoretic accumulation of SkQ in the mitochondrial interior. The cells were then stained with rabbit polyclonal antibodies against actin (1:1000) (Sigma-Aldrich Corp., Baleras, Russia) and monoclonal antibody DM1A against tubulin (1:1000) (Sigma-Aldrich Corp.), and their morphology examined using an Axiovert fluorescent microscope equipped with objectives 20× (dry) and 100× (oil immersion Neofluar) (Carl Zeiss, Germany).

[4] = system: human rhabdomyosarcoma cell line (RD); assay: Apoptosis in RD cells (Hoechst staining, propidium iodide flow cytometry); assay type: cell-based; conditions: 20 nM SkQ1 for 24 hours; flow cytometry
Method: To determine the viability of the cells, chromatine condensation and fragmentation was analyzed in similarly-treated cells (20 nM SkQ or 1 mM NAC or 100 mM Trolox for 24 hours and 1 μm FCCP one hour before SkQ1 where indicated) after staining with Hoechst 3342 (GenScript, Cat. No. L00309, performed according to manufacture manual http://www.genscript.com/tech_guide/TM0361.pdf). The cells were then examined using an Axiovert fluorescent microscope equipped with objectives 20× (dry) and 100× (oil immersion Neofluar) (Carl Zeiss).
Further evidence of apoptosis was obtained by analysis of DNA content in the cellular population using flow cytometry. Cells were incubated with 0.05% ethanol was added (control) or with 20 nM SkQ1 for 24 hours, and then fixed and stained with propidium iodide (5 μM). They were then analyzed by flow cytometry using a FC-500 FACS (Beckman Coulter, Inc., Brea, Calif.).

[5] = Experiment 1, 5.0 nM/kg ip daily day 1-14
[6] = Experiment 1, 50.0 nM/kg ip daily day 1-14
[7] = Experiment 3, 5.0 nM/kg ip daily day 1-14

## CC1=C(C)C(=O)C(CCCCCCCCCC[P+](c2ccccc2)(c2ccccc2)c2ccccc2)=CC1=O [SkQ1]
Ehrlich's carcinoma; 5-day course, days 2-7, day 7 after transplantation
  tumor volume: 251 mm³
Ehrlich's carcinoma; 5-day course, day 7
  TGS%: 40%
Ehrlich's carcinoma; 5-day course, day 14
  TGS%: 23%
  tumor volume: 547 mm³
Ehrlich's carcinoma; 5-day course, day 21
  TGS%: 16%
  tumor volume: 1000 mm³
Ehrlich's carcinoma; 10-day course, days 2-13, day 7
  tumor volume: 228 mm³
Ehrlich's carcinoma; 10-day course, day 7
  TGS%: 45%
Ehrlich's carcinoma; 10-day course, day 14
  TGS%: 34%
  tumor volume: 474 mm³
Ehrlich's carcinoma; 10-day course, day 21
  TGS%: 28%
  tumor volume: 853 mm³
Ehrlich's carcinoma; 15-day course, days 2-16, day 7
  tumor volume: 259 mm³
Ehrlich's carcinoma; 15-day course, day 7
  TGS%: 38%
Ehrlich's carcinoma; 15-day course, day 14
  TGS%: 36%
  tumor volume: 459 mm³
Ehrlich's carcinoma; 15-day course, day 21
  TGS%: 29%
  tumor volume: 838 mm³
[1]; [5]
  Autopsy findings in organs: no visual signs of pathological changes
  Treatment tolerance: satisfactory
[1]; [6]
  Autopsy findings in organs: no pathological changes
  Treatment tolerance: satisfactory
[1]; Experiment 2, 5.0 nM/kg ip daily day 1-8
  Autopsy findings in organs: no visual signs of pathological changes
[1]; [7]
  Autopsy findings in organs: no visual signs of pathological changes
  Treatment tolerance: satisfactory
HCT116 p53−/−; SkQ1 in drinking water
  Effect on tumors with inactivated p53 compared to WT p53: stronger effect on the tumor with inactivated p53
HCT116 p53−/−; SkQ1 in drinking water, 0.5-50 nM/kg/day, 4 weeks, inactivated p53
  Tumor growth vs control group receiving pure water: suppression of tumor growth
HCT116 p53−/−; added to drinking water
  dose of maximal effect: 5 nM
HCT116 p53−/−; in drinking water, equals 5 nM/kg/day, stated for the HCT116 study
  efficient concentration: 0.1 nmol per mouse per day
[2]; Ras-transformed fibroblasts incubated with SkQ1
  Mean cell surface square value: increased manifold
[2]; Ras-transformed fibroblasts treated with SkQ1
  Monolayer formation: formed monolayers similar to those of normal fibroblasts
HCT116 p53+/+
  Tumor growth vs control group receiving pure water: suppression of tumor growth
[3]; 20 nM, pretreatment for 24 hours
  Cell morphology: induced the formation of elongated cells
[3]; 8th day of cultivation with SkQ1
  Multinuclear cells in surviving cell fraction: enriched in multinuclear cells
[3]; 8th day of cultivation with nM SkQ1
  cells remained attached to the surface: about 4%
[4]
  sub-G1 peak (DNA content, propidium iodide): accumulation of apoptotic bodies
